# How the values were obtained:
# Test in all cases: In vitro SRB tumor cell growth inhibition (GI50)
# Type in all cases: cell-based
# [1] = tested on: human ovarian cancer cell strain OVCAR-5; details: OVCAR-5 cells, 48 h
# Outline: (§1)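 A549 and PANC-1 seeded at 10000 cells/well, OVCAR-5 and NCI460 at 5000 cells/well in DMEM/10% FBS, pre-incubated 24 h at 37 °C. Compounds added for 48 h, triplicate; cells TCA-fixed, SRB-stained, absorbance read at 515 nm with 690 nm blank. GI50 from dose-response curve, time-zero wells included.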
# [2] = tested on: human lung cancer cell strain A549; details: A549 cells, 48 h
# Outline: as §1
# [3] = tested on: human uterine cancer Hela; details: Homo sapiens, HeLa, 48 h, Hela cells
# [4] = tested on: human pancreatic cancer PANC-1; details: Homo sapiens, PANC-1, 48 h, PANC-1 cells
# Outline: as §1
# human leukemia K562 = details: Homo sapiens, K562, 48 h, K562 cells
# [5] = tested on: human prostate cancer BXPC-3; details: BXPC-3 cells, 48 h
# [6] = tested on: human ovarian cancer cell strain SKOV-3; details: SK-OV-3, SKOV-3 cells, 48 h
# [7] = tested on: human colon cancer cell strain HCT-116; details: Homo sapiens, HCT-116, 48 h, HCT-116 cells
# [8] = tested on: human prostate cancer DU145; details: Homo sapiens, DU-145, 48 h, DU145 cells
# [9] = tested on: human ovarian cancer cell strain OVCAR-8; details: Homo sapiens, OVCAR-8, 48 h, OVCAR-8 cells
# [10] = tested on: human colon cancer cell strain Colo205; details: Colo 205 cells, 48 h
# human leukemia HL-60 = details: Homo sapiens, HL-60, 48 h, HL-60 cells
# [11] = tested on: human breast cancer cell strain MDA-MB435; details: Homo sapiens, MDA-MB-435, 48 h, MDA-MB435 cells
# [12] = tested on: human lung cancer cell strain NCI-460; details: Homo sapiens, NCI-460, 48 h, NCI-460 cells
# Outline: as §1
# [13] = tested on: human lung cancer cell strain 95D; details: Homo sapiens, 95-D, 48 h, 95D cells
# [14] = tested on: human ovarian cancer cell strain HO8910; details: HO-8910, HO8910 cells, 48 h
# human hepatoma HepG 2 = details: HepG2, HepG 2 cells, 48 h
# [15] = tested on: human breast cancer cell strain MCF-7; details: Homo sapiens, MCF7, 48 h, MCF-7 cells
Structure (SMILES),GI50 [1],GI50 [2],GI50 [3],GI50 [4],GI50 (human leukemia K562),GI50 [5],GI50 [6],GI50 [7],GI50 [8],GI50 [9],GI50 [10],GI50 (human leukemia HL-60),GI50 [11],GI50 [12],GI50 [13],GI50 [14],GI50 (human hepatoma HepG 2),GI50 [15]
"NC(=O)c1ccc(I)c([N+](=O)[O-])c1 [BSI-201, 4-iodo-3-nitrobenzamide, reference compound]",61.1 µM,105 µM,64.7 µM,25.5 µM,44.6 µM,105 µM,38.5 µM,64.7 µM,86.6 µM,103 µM,76 µM,74.1 µM,64.4 µM,> 100 µM,53.8 µM,72.6 µM,> 100 µM,40.1 µM
"C#Cc1ccc(C(N)=O)cc1[N+](=O)[O-] [Compound I-1, 4-ethynyl-3-nitrobenzamide]",4.29 µM,4.56 µM,5.28 µM,7.41 µM,3.02 µM,4.68 µM,3.17 µM,1.9 µM,4.78 µM,11.7 µM,4.84 µM,2.11 µM,2.05 µM,10.9 µM,1.88 µM,1.47 µM,8.73 µM,2.47 µM

# — patent US8946478B2, “Benzamide derivative with anticancer activity and preparation method and use thereof” (Zhejiang Hisun Pharmaceutical Co., Ltd., priority 2010, dated 2015)
